Target: T1, WEE1 (Homo sapiens, UniProt P30291+Q96SW2)
T1 construct: C-terminal ePL-tagged (DiscoverX, Fremont, CA) full-length WEE1 expression construct; expressed in transfected cells; host or cells: LentiX-HEK293T (Invitrogen), lentiviral transduction; co-expressing GSPT1-GN (G576N, lacking the first 158 amino acids)
Test: WEE1-ePL degradation assay (LentiX-WEE1-ePL-GSPT1-ND cells, InCELL Hunter luminescence, 4 h)
Type: cell-based
Conditions: 293T-LentiX WEE1-ePL cells; for DC50: read-out: 293T-LentiX WEE1-ePL Degradation 4 hr (EC50)
Protocol: To generate LentiX-WEE1-ePL-GSPT1-ND cells for the WEE1 degradation assay, LentiX-HEK293T (Invitrogen) were transduced by lentivirus with a C-terminal ePL-tagged (DiscoverX, Fremont, CA) full-length WEE1 expression construct. […] Cells were selected and maintained in complete DMEM media (DMEM, 10% Heat Inactivated FBS, 400 μg/mL Geneticin, and 1 μg/mL puromycin at 37 C and 5% CO2). Cells were passaged every 3-4 days by reseeding 1×10^6 cells in a T150 flask.
Cells were dispensed into 384-well white plates (Corning #3570, NY) that were pre-spotted with compounds using an acoustic dispenser (Echo acoustic transfer system, Beckman Coulter Life Sciences, Carlsbad, CA) as a 10-point dose-response curve with a 3-fold dilution starting at either 1 uM or 10 uM and including a DMSO control. Twenty-five microliters of media containing 2500 cells for LentiX-oeWEE1-ePL was dispensed per well. Assay plates were incubated at 37° C. with 5% CO2 for four hours (WEE1) After incubation, 25 μL of the InCELL Hunter™ Detection Reagent Working Solution (DiscoverX, Fremont, CA) was added to each well and incubated at room temperature for 30 minutes protected from light. After 30 minutes, luminescence was read on a PHERAstar luminometer (Cary, NC).
To determine the half-maximal effective concentration (EC50) values for WEE1-ePL degradation, a four parameter logistic model was used: (Sigmoidal Dose-Response Model) (FIT=(A+((B−A)/1+((C/x)^D)))) where C is the inflection point (EC50), D is the Hill slope, and A and B are the low and high limits of the fit respectively). The lower limit of the fit (value A) is referred to as Ymin. […] The maximum limit constraint, Ymax, is similarly derived using DMSO control. The curves were processed and evaluated using Activity Base (IDBS, Alameda, CA).

[1] = lower limit of the fit (0 = luciferase inhibitor, Ymax = DMSO control)
[2] = lower limit of the fit (Ymin=0 luciferase inhibitor, Ymax DMSO control)

SMILES: NCc1cccc(COc2ccccc2CN2CC[C@H](Oc3ccc4c(c3)CN(C3CCC(=O)NC3=O)C4=O)C2)c1 (stereo partly drawn) [3-(5-{[(3S)-1-[(2-{[3-(aminomethyl)phenyl]methoxy}phenyl)methyl]pyrrolidin-3-yl]oxy}-1-oxo-2,3-dihydro-1H-isoindol-2-yl)piperidine-2,6-dione]
- 293T-LentiX WEE1-ePL Degradation 4 hr (Ymin) [1]: 87.63

SMILES: O=C1CCC(N2Cc3cc(O[C@H]4CCN(Cc5ccnc6ncccc56)C4)ccc3C2=O)C(=O)N1 (stereo partly drawn) [3-(5-{[(3S)-1-[(1,8-naphthyridin-4-yl)methyl]pyrrolidin-3-yl]oxy}-1-oxo-2,3-dihydro-1H-isoindol-2-yl)piperidine-2,6-dione]
- 293T-LentiX WEE1-ePL Degradation 4 hr (Ymin) [1]: 96.5

SMILES: O=C1CCC(N2Cc3cc(O[C@@H]4CCN(Cc5ccc6ncccc6c5)C4)ccc3C2=O)C(=O)N1 (stereo partly drawn) [3-(1-oxo-5-{[(3R)-1-[(quinolin-6-yl)methyl]pyrrolidin-3-yl]oxy}-2,3-dihydro-1H-isoindol-2-yl)piperidine-2,6-dione]
- 293T-LentiX WEE1-ePL Degradation 4 hr (Ymin) [2]: 90.24

SMILES: O=C1CCC(N2Cc3cc(O[C@@H]4CCN(Cc5c[nH]c6cnccc56)C4)ccc3C2=O)C(=O)N1 (stereo partly drawn) [3-(1-oxo-5-{[(3R)-1-({1H-pyrrolo[2,3-c]pyridin-3-yl}methyl)pyrrolidin-3-yl]oxy}-2,3-dihydro-1H-isoindol-2-yl)piperidine-2,6-dione]
- 293T-LentiX WEE1-ePL Degradation 4 hr (Ymin) [2]: 93.39

SMILES: C[C@H]1c2cc(O[C@H]3CCN(Cc4ccc5nc(N6CCOCC6)ncc5c4)C3)ccc2C(=O)N1[C@H]1CCC(=O)NC1=O [(3S)-3-[(3S)-3-methyl-5-{[(3S)-1-{[2-(morpholin-4-yl)quinazolin-6-yl]methyl}pyrrolidin-3-yl]oxy}-1-oxo-2,3-dihydro-1H-isoindol-2-yl]piperidine-2,6-dione]
- 293T-LentiX WEE1-ePL Degradation 4 hr (Ymin) [2]: 37.95
- DC50: 1180 nM

SMILES: O=C1CCC(N2Cc3ccc(O[C@@H]4CCN(Cc5cnc6ccccc6c5)C4)cc3C2=O)C(=O)N1 (stereo partly drawn) [3-(1-oxo-6-{[(3R)-1-[(quinolin-3-yl)methyl]pyrrolidin-3-yl]oxy}-2,3-dihydro-1H-isoindol-2-yl)piperidine-2,6-dione]
- 293T-LentiX WEE1-ePL Degradation 4 hr (Ymin) [1]: 89.42

SMILES: O=C1CC[C@H](N2Cc3cc(O[C@H]4CCN(Cc5ccc6nc(N7CCOCC7)ncc6c5F)C4)ccc3C2=O)C(=O)N1 [(3S)-3-(5-{[(3S)-1-{[5-fluoro-2-(morpholin-4-yl)quinazolin-6-yl]methyl}pyrrolidin-3-yl]oxy}-1-oxo-2,3-dihydro-1H-isoindol-2-yl)piperidine-2,6-dione]
- 293T-LentiX WEE1-ePL Degradation 4 hr (Ymin) [2]: 32.24
- DC50: 3.27 nM

SMILES: O=C1CCC(N2Cc3cc(O[C@@H]4CCN(Cc5ccnc6ccccc56)C4)ccc3C2=O)C(=O)N1 (stereo partly drawn) [3-(1-oxo-5-{[(3R)-1-[(quinolin-4-yl)methyl]pyrrolidin-3-yl]oxy}-2,3-dihydro-1H-isoindol-2-yl)piperidine-2,6-dione]
- 293T-LentiX WEE1-ePL Degradation 4 hr (Ymin) [2]: 87.11

SMILES: O=C1CCC(N2Cc3cc(O[C@H]4CCN(Cc5cccc6nccn56)C4)ccc3C2=O)C(=O)N1 (stereo partly drawn) [3-(5-{[(3S)-1-({imidazo[1,2-a]pyridin-5-yl}methyl)pyrrolidin-3-yl]oxy}-1-oxo-2,3-dihydro-1H-isoindol-2-yl)piperidine-2,6-dione]
- 293T-LentiX WEE1-ePL Degradation 4 hr (Ymin) [1]: 57.26
- DC50: 183 nM

SMILES: COC[C@H]1CCC[C@@H](c2ccc3cc(CN4CC[C@H](Oc5ccc6c(c5)CN(C5CCC(=O)NC5=O)C6=O)C4)ccc3n2)C1 (stereo partly drawn) [3-(5-{[(3S)-1-({2-[(1R,3S)-3-(methoxymethyl)cyclohexyl]quinolin-6-yl}methyl)pyrrolidin-3-yl]oxy}-1-oxo-2,3-dihydro-1H-isoindol-2-yl)piperidine-2,6-dione]
- 293T-LentiX WEE1-ePL Degradation 4 hr (Ymin) [2]: 26.32
- DC50: 1.82 nM

SMILES: O=C1CCC(N2Cc3cc(O[C@H]4CCN(Cc5ccc6cnccc6n5)C4)ccc3C2=O)C(=O)N1 (stereo partly drawn) [3-(5-{[(3S)-1-[(1,6-naphthyridin-2-yl)methyl]pyrrolidin-3-yl]oxy}-1-oxo-2,3-dihydro-1H-isoindol-2-yl)piperidine-2,6-dione]
- 293T-LentiX WEE1-ePL Degradation 4 hr (Ymin) [1]: 42.7
- DC50: 109 nM
